Assay results from the NIST ThermoML archive (doi:10.1021/je900600c).

Experiment: xn = mol fraction of the nth substance listed
Conditions: 101 kPa, Liquid; for electrical conductivity: Frequency=0.0005 MHz, crison conductivimeter

CCCCn1cc[n+](C)c1.F[B-](F)(F)F [1-butyl-3-methylimidazolium tetrafluoroborate] + O
Conditions | electrical conductivity [S/m] | viscosity [mPa·s]
288.15 K, x2 = 0 | – | 173.5
288.15 K, x2 = 0.0476 | – | 134.1
288.15 K, x2 = 0.1091 | – | 108.4
288.15 K, x2 = 0.143 | – | 89.3
288.15 K, x2 = 0.2389 | – | 58.2
288.15 K, x2 = 0.3078 | – | 45.6
288.15 K, x2 = 0.4 | – | 32.5
288.15 K, x2 = 0.4954 | 1.4 | –
288.15 K, x2 = 0.5054 | – | 21.1
288.15 K, x2 = 0.6266 | – | 13.77
288.15 K, x2 = 0.6992 | – | 9.78
288.15 K, x2 = 0.7981 | – | 6.69
288.15 K, x2 = 0.9032 | – | 3.83
298.15 K, x2 = 0 | 0.352 | 99.2
298.15 K, x2 = 0.0476 | – | 78.7
298.15 K, x2 = 0.1091 | – | 65.6
298.15 K, x2 = 0.143 | – | 55.1
298.15 K, x2 = 0.2235 | 0.785 | –
298.15 K, x2 = 0.2389 | – | 37.7
298.15 K, x2 = 0.3078 | – | 30.2
298.15 K, x2 = 0.3705 | 1.3 | –
298.15 K, x2 = 0.4 | – | 22.1
298.15 K, x2 = 0.4835 | 1.86 | –
298.15 K, x2 = 0.4954 | 2.02 | –
298.15 K, x2 = 0.5054 | – | 14.72
298.15 K, x2 = 0.6173 | 2.75 | –
298.15 K, x2 = 0.6266 | – | 9.82
298.15 K, x2 = 0.6992 | – | 7.07
298.15 K, x2 = 0.7167 | 3.64 | –
298.15 K, x2 = 0.777 | 4.2 | –
298.15 K, x2 = 0.7981 | – | 4.89
298.15 K, x2 = 0.8168 | 4.55 | –
298.15 K, x2 = 0.8458 | 4.84 | –
298.15 K, x2 = 0.8684 | 5 | –
298.15 K, x2 = 0.8879 | 5.08 | –
298.15 K, x2 = 0.9031 | 5.09 | –
298.15 K, x2 = 0.9032 | – | 2.79
298.15 K, x2 = 0.9151 | 5.08 | –
298.15 K, x2 = 0.9245 | 5.05 | –
298.15 K, x2 = 0.9322 | 4.98 | –
298.15 K, x2 = 0.9396 | 4.84 | –
298.15 K, x2 = 0.9457 | 4.81 | –
298.15 K, x2 = 0.952 | 4.73 | –
298.15 K, x2 = 0.9572 | 4.65 | –
298.15 K, x2 = 0.9615 | 4.54 | –
298.15 K, x2 = 0.9654 | 4.41 | –
298.15 K, x2 = 0.9713 | 4.15 | –
298.15 K, x2 = 0.9801 | 3.64 | –
298.15 K, x2 = 0.9861 | 3.14 | –
298.15 K, x2 = 0.9896 | 2.68 | –
298.15 K, x2 = 0.993 | 2.11 | –
298.15 K, x2 = 0.9951 | 1.64 | –
298.15 K, x2 = 0.9961 | 1.43 | –
298.15 K, x2 = 0.9974 | 1.05 | –
298.15 K, x2 = 0.9982 | 0.788 | –
298.15 K, x2 = 0.999 | 0.475 | –
298.15 K, x2 = 0.9996 | 0.2 | –
308.15 K, x2 = 0 | – | 61.3
308.15 K, x2 = 0.0476 | – | 49.8
308.15 K, x2 = 0.1091 | – | 42.4
308.15 K, x2 = 0.143 | – | 36.3
308.15 K, x2 = 0.2389 | – | 25.9
308.15 K, x2 = 0.3078 | – | 21.1
308.15 K, x2 = 0.4 | – | 15.81
308.15 K, x2 = 0.4954 | 2.61 | –
308.15 K, x2 = 0.5054 | – | 10.8
308.15 K, x2 = 0.6266 | – | 7.33
308.15 K, x2 = 0.6992 | – | 5.34
308.15 K, x2 = 0.7981 | – | 3.75
308.15 K, x2 = 0.9032 | – | 2.47
318.15 K, x2 = 0 | – | 40.4
318.15 K, x2 = 0.0476 | – | 33.5
318.15 K, x2 = 0.1091 | – | 29.1
318.15 K, x2 = 0.143 | – | 25.3
318.15 K, x2 = 0.2389 | – | 18.62
318.15 K, x2 = 0.3078 | – | 15.47
318.15 K, x2 = 0.4 | – | 11.81
318.15 K, x2 = 0.4954 | 3.25 | –
318.15 K, x2 = 0.5054 | – | 8.24
318.15 K, x2 = 0.6266 | – | 5.68
318.15 K, x2 = 0.6992 | – | 4.18
318.15 K, x2 = 0.7981 | – | 2.96
318.15 K, x2 = 0.9032 | – | 1.717
